From US6645965B1, “Nitrate salts of antihypertensive medicines” (priority 1998, dated 2003)

Columns and labels:
[1] = test system: ileal contraction caused by calcium chloride; assay: Ileal contraction caused by calcium chloride (calcium antagonist activity); conditions: guinea pig ileum, calcium chloride 20 mcg/ml, compound 10^−6 M; Carrier = 100
Procedure: In the latter, the experimental model adapted was that of the ileal contraction caused by calcium chloride, according to the method described by M. J. Spedding, J. Pharmacology 83, 211-220, 1984. Ileus segments taken from guinea pig (300-350 g) were maintained at 37° C. in a physiologic solution not containing calcium ions and then stimulated by calcium chloride addition (final concentration 20 mcg/ml). The calcium antagonist activity was determined as the reduction of the ileal contraction following addition of each of the test compounds at a concentration 10^−6 M.

[2] = test system: arterial hypertension induced by L-NAME; assay: Arterial hypertension induced by L-NAME, systemic arterial pressure by caudal way; type: in vivo, rat; conditions: Carrier 170 ± 7
Procedure: The inhibiting effect of Losartan nitrate on the arterial hypertension has been assayed by using two experimental models: the arterial hypertension induced by L-NAME (see the preceding example) and the muscular contraction produced by Angiotensin II. In the first experiment Wistar adult male rats (235-284 g) received for 6 weeks drinking water containing L-NAME. at a 60-70 mg/100 ml concentration, equivalent to a daily dose of about 60 mg/Kg. […] One hour after the last treatment, the systemic arterial pressure was determined by caudal way, as described by Zatz, Lab. Anim. Sci., 42, 198, 1990. […] In the second experiment the method described by Taylor (see Example 10) has been followed as described before. The prostatic part of the isolated deferent duct of rats (200-220 g) was removed and dipped in a physiologic solution at 37° C. and then contracted by transmural stimulation (95% of the maximum stimulation, 0.2 Hz).

[3] = test system: left atrium specimens stimulated by Isoprenaline; assay: Inotropic-positive effect caused by Isoprenaline in guinea pig left atrium (beta-adrenolytic activity); conditions: Isoprenaline 10 mcg/ml, compound 10^−6M, Carrier = 100
Procedure: In the latter experiment the method described by Grodzinski et al., Arch. Int. Phramacodyn., 191, 133-141, 1971 was followed. The left atrium specimens taken from guinea pigs (300-350 g) were maintained at 32° C. in a physiologic solution wherein the concentration of calcium ion was ⅓ lower and stimulated by Isoprenaline (10 mcg/ml). The beta-adrenolitic activity is expressed as the reduction of the inotropic-positive effect (increase of the cardiac muscle contraction) following addition of the compound under examination at a 10^−6M concentration.

[4] = test system: bronchoconstriction induced in guinea pigs by the Capsaicin injection; assay: Experimental bronchoconstriction induced by Capsaicin injection (tidal air variation, Konzett apparatus); type: in vivo, guinea pig
Procedure: The compounds at a dose of 10 mg/kg and the corresponding carrier have been administered to the guinea pigs (groups of 6 animals each) by intraperitoneal route for three consecutive days. The animals were prepared according to the method of Del Soldato et al. J. Pharmacol. Methods 5 279 1981. 45 minutes later 0.1 ml of a Capsaicin saline solution (1 μg/Kg) was injected to the animals intravenously. The tidal air variation before and after the Capsaicin administration was measured by a Konzett apparatus, modified as described in the above mentioned reference, connected to a polygraphic system. The effects of the compounds and of their corresponding nitrate salts on the experimental bronchoconstriction induced in guinea pigs by the Capsaicin injection are reported in Table 1.

[5] = test system: gastric tissue; assay: Gastric toxicity in rats given ethanol 50% by os (gastric lesions); type: in vivo; conditions: Sprague-Dawley male rats (n=10), 10 mg/Kg i.p. as free base, ethanol 50% by os 30 minutes later; Controls 50
Procedure: 5 groups of Sprague-Dawley male rats (n=10), were fasted for 24 hours. 4 groups were then respectively treated i.p. with Sildenafil, Zaprinast, and the relevant nitrate salts of said drugs. One group was not treated and was tha control group. 30 minutes later 1 ml of ethanol 50% in water was given by os to the animals.
One hour later the animals were sacrificed. The stomach was removed and the gastric tissue was macroscopically examined.
The results are reported in Table X. In the Table the gastric toxicity given as % incidence is the number of rats in a group showing gastric lesions.

[6] = test system: isolated human cavernous artery; assay: Relaxation of isolated human cavernous artery pre-contracted with adrenaline; conditions: 10^−6 M; adrenaline 3.10^−6 M
Description: (§1) The relaxation effect of the cavernous artery and of the human cavernosum corpora (vasodilating effect at a peripheric level) was also studied. It was used the technique described by R. G. Hempelmann et al., European Journal of Pharmacology 276, 277-280 (1995), employing erectile tissues coming from patients submitted to surgical operation. The cavernous arteries have been isolated and cleaned up from the surrounding connective tissue. Segments of about 2 mm length were obtained and were mounted in a myograph equipment.
(§2) After having drawn an experimental curve diameter/tension, the specimens have been adjusted to a diameter corresponding to 90% of the one reached in the presence of a transluminal pressure of 100 mm Hg; after a stabilization period of about 60 minutes, contraction was effected by adrenaline 3.10^−6 M. After 15 minutes a dose corresponding to 10^−6 M of each of the tested compounds was added and the relaxation percentage was recorded.

[7] = test system: prostatic part of the deferent vessel contracted by transmural stimulation; assay: Prostatic deferent vessel constriction induced by submaximum electric stimulation, rats treated with L-NAME; set-up: species or system rat; conditions: 10 mg/kg s.c. daily for five days, tested substance 10^−6 M, within 5 minutes, Carrier = 100
Procedure: The compounds have been administered in physiological solution. The control group has been treated with the carrier (physiologic solution) only. The vaso-relaxing activity of Sildenafil nitrate was determined by using the experimental model of the prostatic deferent vessels constriction, induced by submaximum electric stimulation (D. A. Taylor et al., J. Pharmacol. Exp. Ther. 224, 40-45 1983), in rats treated with N^w-nitro-L-arginine methyl ester (L-NAME) as described by Ribeiro et al., Hypertension, 20, 298, 1992. […] […] One hour after the last treatment,. the animals were sacrificed and the prostatic part of the deferent vessel was removed, dipped in a physiologic solution at 37° C., and contracted by transmural stimulation (95% of the maximum stimulation, 0.2 Hz). The reduction of the neurogenic contractive response, which results within 5 minutes from the addition of the tested substance at a concentration of 10^−6 M, is taken as a measure of the vasorelaxing activity.

[8] = test system: isolated human cavernous tissue; assay: Relaxation of isolated human cavernous tissue strips precontracted with adrenaline; conditions: 10^−6 M; adrenaline 3.10^−6 M
Description: as §1, §2
A second series of experiments has been carried out according to the same protocol, on the isolated strips, 3×3×5 mm, of cavernous tissue, isometrically suspended in baths for isolated organs, under a 5-10 mN tension.

[9] = test system: prostatic part of the isolated deferent duct contracted by transmural stimulation; assay: Vascular contraction of isolated rat deferent duct induced by electric stimulation; conditions: compound 10^−6 M, within 5 minutes, Carrier = 100
Description: The inhibiting effect of Minoxidil nitrate on the arterial hypertension has been determined by using two experimental models: the arterial hypertension induced by L-NAME (see Example 10) and the vascular contraction induced by electric stimulation. In the first pharmacological experiment the rats have been treated as described in the pharmacological experiment with L-NAME of Example 11. In the second experiment the method described by Taylor (see Example 10) has been followed as described before. The prostatic part of the isolated deferent duct of rats (200-220 g) was removed and dipped in a physiologic solution at 37° C. and then contracted by transmural stimulation (95% of the maximum stimulation, 0.2 Hz).
The vasorelaxing activity is expressed as the reduction of the contractive neurogenic response, determined within 5 minutes from the. addition of the tested compound at a 10^−6 M concentration.

[10] = test system: muscular contraction produced by Angiotensin II (isolated ileum); assay: Contraction of isolated guinea pig ileum produced by Angiotensin II; conditions: Angiotensin II 10 mcg/ml, compound 10^−6M, Carrier = 100
Description: In the second experiment (contraction produced by Angiotensin II), the method described by P. C. Wong et al., Hypertension, 13, 489-497, 1989 has been followed.

[11] = Diuretic effect in rats (urine volume over 6 hours); type: in vivo, rat; conditions: 10 mg/Kg subcutaneously, urine volume over 6 hours as percentage of carrier group
Procedure: In the latter experiment the diuretic effect was studied according to the method described by W. L. Lipschwitz et al. J. Pharmacol. Exp. Ther., 79, 97-110, 1943. No 3 groups of 6 rats (200-220 g) each, stalled in metabolic cages received drinking distilled water (25 ml/Kg p.o.). Each group was then subcutaneously injected with Amiloride nitrate (10 mg/Kg), Amiloride (10 mg/Kg) or carrier respectively. The urine volume was collected during a period of 6 hours following drug administration, measured in ml. The diuretic effect is expressed as percentage of the collected urine volume calculated on that of the group treated with the carrier.

[12] = Table VIII, L-NAME rats, model of Example 11
[13] = Table VII, L-NAME rats, model of Example 11
[14] = Table VI, L-NAME rats treated as in Example 11
[15] = guinea pigs, 10 mg/kg intraperitoneal for three consecutive days, Capsaicin 1 μg/Kg i.v., Carrier = 100
[16] = Table V, L-NAME rats, 10 mg/kg s.c. daily for five days, one hour after last treatment

For “Nicardipine Nitrate Salt [Nicardipine.HNO3]”, the “Contracturing effect % (n = 5)” value [1] was 8% and the “Average arterial pressure (mm Hg)” value [2, 12] was 108 ± 3 mm Hg.

In the case of Timolol nitrate salt [Timolol.HNO3], the “Inotropic positive effect % (n = 5)” value [3] is reported as 13%, the “Bronchoconstrictive effect (%)” value ([4]; guinea pig, in vivo, 10 mg/kg) is reported as 94% and the “Average arterial pressure (mm Hg)” value [2, 13] is reported as 108 ± 8 mm Hg.

With Zaprinast Nitrate [Zaprinast.HNO3] the “Gastric toxicity (% incidence)” value [5] was 30 % incidence.

For `CCCc1nn(C)c2c(=O)[nH]c(-c3cc(S(=O)(=O)N4CCN(C)CC4)ccc3OCC)nc12` [Sildenafil], the “Relaxing effect on the isolated human cavernous artery pre-contracted with adrenaline (n = 5) (relaxation %)” value (from here on “Relaxing effect … (n = 5) (relaxation %)”) [6] was 25 ± 4%, the “Effect on vasoconstriction (%)” value [7] was 68% and the “Relaxing effect on the isolated human cavernous tissue precontracted with adrenaline (n = 4) (relaxation %)” value (“Relaxing effect … (n = 4) (relaxation %)” for short) [8] was 42 ± 6%.

With `Nc1cc(N2CCCCC2)nc(N)[n+]1[O-]` [Minoxidil, 6-(1-piperidiny-1)-2,4-pyrimidinediamine 3-oxide, reference compound] the “Effect on the vasoconstriction % (n = 5)” value [9] was 18% and the “Average arterial pressure (mm Hg)” value [2, 14] was 132 ± 6 mm Hg.

With “Propranolol nitrate salt [Propranolol.HNO3]” the “Bronchoconstrictive effect (%)” value [4, 15] was 110%.

For `[NH-]c1c[n+](N2CCOCC2)no1` [SIN-1], the “Relaxing effect … (n = 5) (relaxation %)” value [6] was 36 ± 7% and the “Relaxing effect … (n = 4) (relaxation %)” value [8] was 33 ± 4%.

In the case of `CC(C)(C)NC[C@H](O)COc1nsnc1N1CCOCC1` [Timolol, reference compound], the “Inotropic positive effect % (n = 5)” value [3] is reported as 32%, the “Bronchoconstrictive effect (%)” value [4, 15] is reported as 188% and the “Average arterial pressure (mm Hg)” value [2, 13] is reported as 144 ± 5 mm Hg.

With `CC(C)NCC(O)COc1cccc2ccccc12` (stereo not shown) [Propranolol, reference compound] the “Bronchoconstrictive effect (%)” value [4, 15] was 280%.

For Losartan nitrate [Losartan.HNO3], the “Average arterial pressure (mm Hg)” value [2, 16] was 115 ± 4 mm Hg and the “Effect on the contraction of the smooth musculature % (n = 5)” value [10] was 12%.

In the case of Minoxidil nitrate [Minoxidil.HNO3], the “Effect on the vasoconstriction % (n = 5)” value [9] is reported as 5% and the “Average arterial pressure (mm Hg)” value [2, 14] is reported as 110 ± 6 mm Hg.

With `CCCCc1nc(Cl)c(CO)n1Cc1ccc(-c2ccccc2-c2nn[nH]n2)cc1` [Losartan, reference compound] the “Average arterial pressure (mm Hg)” value [2, 16] was 153 ± 5 mm Hg and the “Effect on the contraction of the smooth musculature % (n = 5)” value [10] was 33%.

For “Sildenafil Nitrate Salt [Sildenafil.HNO3]”, the “Relaxing effect … (n = 5) (relaxation %)” value [6] was 61 ± 3%, the “Effect on vasoconstriction (%)” value [7] was 25% and the “Relaxing effect … (n = 4) (relaxation %)” value [8] was 68 ± 7%.

In the case of `COC(=O)C1=C(C)NC(C)=C(C(=O)OCCN(C)Cc2ccccc2)C1c1cccc([N+](=O)[O-])c1` (stereo not shown) [Nicardipine, 1,4-dihydro-2,6-dimethyl-4-(3-nitrophenyl)-3,5-pyridinedicarboxylic acid methyl 2[methyl-(phenylmethyl)amino]ethyl ester, reference compound], the “Contracturing effect % (n = 5)” value [1] is reported as 25% and the “Average arterial pressure (mm Hg)” value [2, 12] is reported as 122 ± 6 mm Hg.

In the case of Amiloride Nitrate Salt [Amiloride.HNO3], the “Average arterial pressure (mm Hg)” value ([2]; Table IX, L-NAME rats, model of Example 11) is reported as 110 ± 5 mm Hg and the “Diuretic effect % (n = 5)” value [11] is reported as 215%.
